Test results taken from the supplement of paper PMC10307832.

Columns and labels:
Assay in all cases: relative viability (nuclei count vs DMSO), 5 days (fraction); higher = more cells survive
[1] = compound: O=c1[nH]cc(F)c(=O)[nH]1 [5-Fluorouracil] + CC(=O)c1c(C)c2cnc(Nc3ccc(N4CCNCC4)cn3)nc2n(C2CCCC2)c1=O [Palbociclib] (partner 0.5 µM)
How it was run: (§1)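 Values are medians from duplicate plates. Each reflects relative viability, defined as the nuclei count of treated wells over that of vehicle wells. Lung cancer cell lines in 1536-well plates were pin-tool dosed one day after seeding with one drug alone or with a fixed anchor-drug dose plus five library-drug doses (not always all listed) in √10 steps, then fixed, stained and imaged at 4× after 5 days.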

[2] = compound: O=c1[nH]cc(F)c(=O)[nH]1 [5-Fluorouracil] + Nc1nc2[nH]cc(CCc3ccc(C(=O)N[C@@H](CCC(=O)O)C(=O)O)cc3)c2c(=O)[nH]1 [Pemetrexed] (partner 0.2 µM)
How it was run: as §1

[3] = compound: CN[C@@H]1C[C@H]2O[C@@](C)([C@@H]1OC)n1c3ccccc3c3c4c(c5c6ccccc6n2c5c31)C(=O)NC4 [Staurosporine] + C[C@]1(O)C[C@@H](c2nc(-c3ccc4ccc(-c5ccccc5)nc4c3)c3c(N)nccn32)C1 [Linsitinib] (partner 1 µM)
How it was run: as §1

[4] = compound: CN[C@@H]1C[C@H]2O[C@@](C)([C@@H]1OC)n1c3ccccc3c3c4c(c5c6ccccc6n2c5c31)C(=O)NC4 [Staurosporine] + CS(=O)(=O)N1CCN(Cc2cc3nc(-c4cccc5[nH]ncc45)nc(N4CCOCC4)c3s2)CC1 [Pictilisib] (partner 1 µM)
How it was run: as §1

| Cell Line | relative viability ([1]; first compound 0.02 µM) | relative viability ([1]; first compound 0.2 µM) | relative viability ([1]; first compound 0.6325 µM) | relative viability ([1]; first compound 2 µM) | relative viability ([2]; first compound 0.02 µM) | relative viability ([2]; first compound 0.2 µM) | relative viability ([2]; first compound 0.6325 µM) | relative viability ([2]; first compound 2 µM) | relative viability ([3]; first compound 0.005 µM) | relative viability ([3]; first compound 0.01581 µM) | relative viability ([3]; first compound 0.05 µM) | relative viability ([3]; first compound 0.1581 µM) | relative viability ([3]; first compound 0.5 µM) | relative viability ([4]; first compound 0.005 µM) | relative viability ([4]; first compound 0.01581 µM) | relative viability ([4]; first compound 0.05 µM) | relative viability ([4]; first compound 0.1581 µM) | relative viability ([4]; first compound 0.5 µM) |
| --- | --- | --- | --- | --- | --- | --- | --- | --- | --- | --- | --- | --- | --- | --- | --- | --- | --- | --- |
| NCI-H1792 | 0.688 | 0.696 | 0.352 | 0.29 | 0.948 | 0.569 | 0.215 | 0.191 | 0.488 | 0.287 | 0.105 | 0.114 | 0.0997 | 0.25 | 0.0859 | 0.0905 | 0.106 | – |
| NCI-H2347 | 0.455 | 0.381 | 0.395 | 0.326 | 0.365 | 0.414 | 0.424 | 0.426 | 0.899 | 0.732 | 0.402 | 0.446 | 0.351 | 0.836 | 0.217 | 0.487 | 0.333 | 0.357 |
| 201T | 0.376 | 0.347 | 0.294 | 0.256 | 0.322 | 0.267 | 0.274 | 0.248 | 1.02 | 1 | 0.814 | 0.688 | 0.575 | 0.595 | 0.451 | 0.551 | 0.463 | 0.42 |
| NCI-H1755 | 0.448 | 0.501 | 0.409 | 0.376 | 0.509 | 0.367 | 0.32 | 0.295 | 0.856 | 0.595 | 0.283 | 0.18 | 0.171 | 0.135 | 0.139 | 0.155 | 0.138 | 0.154 |
| NCI-H647 | 0.343 | 0.516 | 0.308 | 0.358 | 0.187 | 0.182 | 0.176 | 0.164 | 0.616 | 0.361 | 0.22 | 0.112 | 0.0579 | 0.292 | 0.125 | 0.148 | 0.118 | 0.0831 |
| NCI-H1355 | 0.41 | 0.364 | 0.241 | 0.207 | 0.928 | 0.762 | 0.311 | 0.257 | 0.908 | 0.543 | 0.24 | 0.269 | 0.223 | 0.277 | 0.157 | 0.215 | 0.153 | 0.152 |
| NCI-H1975 | 0.671 | 0.768 | 0.355 | 0.189 | 0.309 | 0.28 | 0.243 | 0.219 | 0.323 | 0.229 | – | 0.139 | 0.124 | 0.209 | 0.14 | 0.156 | 0.103 | 0.11 |
| BEN | 0.443 | 0.433 | 0.472 | 0.449 | 0.817 | 0.837 | 0.758 | 0.903 | 1.23 | 0.923 | 0.436 | 0.52 | 0.245 | 0.836 | 0.612 | 0.474 | 0.251 | 0.204 |
| SK-MES-1 | 0.337 | 0.285 | 0.244 | 0.277 | 0.837 | 0.473 | 0.351 | 0.303 | 0.836 | 0.403 | 0.318 | 0.267 | 0.153 | 0.328 | 0.265 | 0.173 | 0.182 | 0.19 |
